In patent US8383672B2, “Halogenated rhodamine derivatives and applications thereof” (Kiadis Pharma Canada Inc., priority 2001, dated 2013):
“Also recorded” adds a separate entry of the source.

Columns and labels:
Cytomegalovirus [1] = experiment: Antiviral assay against Cytomegalovirus in FS cells, with PDT treatment; type: cell-based, CMV (AD169); details: 50 uM, followed by PDT treatment (180 minutes, 30 Joules/cm^2)
Protocol: The antiviral assay was performed as described in Lin, L (2001). Human diploid fibroblast, foreskin cells (FS), were used in this assay. […].
(§1) FS cells were grown to confluency in shell vials. At the time of infection 2.5-3.5×10^5 cells were growing on each coverslip. The CMV (AD169) stock solution containing 1 mL of virus were quickly thawed, seeded and diluted following 100 fold dilutions in MEM (Earle's salt) supplemented with L-glutamine and 2% FBS, total volume 30 ml.
(§2) The titer of the virus have been determined at 10^−2 (10^4 TCID50) plaque forming units (pfu) in 0.2 ml. Therefore 1 mL used in the PDT experiments represents […]. A M. O. I. of 0.4-0.5 of CMV was used throughout this experiment.
(§3) The plates containing no rhodamines derivatives were treated with light in parallel to the non-light treated plates. The concentration used throughout the assay for the rhodamines derivatives was maintained at 50 uM. Following the addition of the derivatives to the viral stock solution, the plates were placed into the Theralux L6.30 device and illuminated for 180 minutes with 210 rpm agitation. The energy output was measured to be 30 Joules/cm^2. The non-PDT plate was placed into a 37° C. incubator for the same amount of time. Following this treatment time, dilutions were made and inoculated with the FS cells under centrifugation (2000 g, 60 minutes). Following the centrifugation, the cells are incubated 60 minutes at 37° C., 5% CO2, then are washed with the culture media and incubated for 18-24 hours at 37° C. at 5% CO2. Inoculation volume of each dilution was 0.2 ml, the dilutions made were 10^−3 to 10^−5 in duplicate.
The cells were fixed, removed from the vials and stained with labelled FITC (fluorescein isothiocyanate) Mab to CMV immediate early antigen.
CMV viral particles were counted. One fluorescent virus particle (kidney-shaped) represents one plaque forming unit.

S. epidermitis = experiment: Bacteriostatic activity of rhodamine derivatives against Staphilococcus epidermitis (photodynamic treatment, CFU/mL); type: cell-based; details: for decrease of bacterial growth (bacteriostatic effect): without extrusion time
Protocol: Staphilococcus epidermitis
(§4) The protocol used for the bacteriosidic inactivation was performed as described in Brasseur and coll. with few modifications for bacteriosidic potential assessment (Brasseur et al, 2000).
Bacterial was grown overnight in Lubria Broth medium (LB), 100 μl (≈1×10^7 bacteria) of each bacterial suspension was added to 4 ml of LB medium, a small aliquot of the bacterial suspension was taken out for bacterial titer prior to treatment expressed as CFU/mL. […] Each mixture of bacteria rhodamine derivative was incubated at 37° C. for 40 minutes. The bacteria-rhodamine suspensions were then treated and exposed to a 514 nm wavelength light for 180 minutes, for a total output energy of 30 Joules/cm^2. Following the treatment time, the bacteria-rhodamine suspensions were centrifuged at 3000 g, resuspended in 4 ml and serial dilutions were performed for each duplicate. 10 μL of the diluted bacterial suspensions were plated, the plates incubated overnight at 37° C. The bacteriostatic effect is expressed by the number of CFU/mL.
The protocol used for the bacteriosidic inactivation was performed as described in Brasseur and coll. without modification for bacteriosidic potential assessment (Brasseur et al, 2000).
Bacterial was grown overnight in Lubria Broth medium (LB), 100 μl (≈1×10^7 bacteria) of each bacterial suspension added to 4 ml of LB medium. A small aliquot of the bacterial suspension was taken out for bacterial titer prior to treatment. […] Each mixture of bacteria rhodamine derivative was incubated at 37° C. for 40 minutes. The bacterial suspensions were then centrifuged at 3000 g for 10 minutes, resuspended in 4 mL LB media and incubated for 90 minutes at 37° C. to allow extrusion of the derivatives. The bacteria rhodamines suspensions were then treated and exposed to a 514 nm wavelength light for 180 minutes, for a total output energy of 30 Joules/cm^2. Following the treatment time, serial dilutions were performed for each duplicate and 10 μL of the diluted bacterial suspension was plated, the plates incubated overnight at 37° C. The bacteriostatic effect is expressed by the number of colony forming units/mL.

Cytomegalovirus [2] = experiment: Antiviral assay against Cytomegalovirus in FS cells, without PDT treatment; type: cell-based, CMV (AD169); details: 50 uM
Protocol: The antiviral assay was performed as described in Lin, L (2001). Human diploid fibroblast, foreskin cells (FS), were used in this assay.
as §1, §2
as §3, with “solution,” for “solution, the plates were placed into the Theralux L6.30 device and illuminated for 180 minutes with 210 rpm agitation. The energy output was measured to be 30 Joules/cm^2. The non-PDT plate was placed into a 37° C. incubator for the same amount of time. Following this treatment time,”, “duplicate. […]” for “duplicate.”
CMV viral particles were counted. […]

S. typhimurium = experiment: Bacteriostatic activity of rhodamine derivatives against S. typhimurium (photodynamic treatment, CFU/mL); type: cell-based, Salmonella typhimurium; details: 50 μM; for antibacterial activity against S. typhimurium: 514 nm light 180 minutes, 30 Joules/cm^2; for log decrease of bacterial growth: S. typhimurium, without extrusion time
Protocol: as §4
(§5) Bacterial was grown overnight in Lubria Broth medium (LB), 100 μl (≈×10^7 bacteria) of each bacterial suspension was added to 4 ml of LB medium, a small aliquot of the bacterial suspension was taken out for bacterial titer prior to treatment expressed as CFU/mL. To the bacterial suspension was added the rhodamines derivatives, each derivative being tested in duplicate at a concentration of 50 μM. Each mixture of bacteria rhodamine derivative was incubated at 37° C. for 40 minutes. The bacteria-rhodamine suspensions were then treated and exposed to a 514 nm wavelength light for 180 minutes, for a total output energy of 30 Joules/cm^2. Following the treatment time, the bacteria-rhodamine suspensions were centrifuged at 3000 g, resuspended in 4 ml and serial dilutions were performed for each duplicate. 10 μL of the diluted bacterial suspensions were plated, the plates incubated overnight at 37° C. The bacteriostatic effect is expressed by the number of CFU/mL.

E. coli = experiment: Bacteriostatic activity of rhodamine derivatives against E. coli (photodynamic treatment, CFU/mL); details: for antibacterial activity against E. coli: 50 μM, 514 nm light 180 minutes, 30 Joules/cm^2; for log decrease of bacterial growth: E. coli, 50 uM, without extrusion time
Protocol: Bacterial was grown overnight in Lubria Broth medium (LB), 100 μl (≈1×10^7 bacteria) of each bacterial suspension was added to 4 ml of LB medium, a small aliquot of the bacterial suspension was taken out for bacterial titer prior to treatment expressed as CFU/mL (colony forming units per mL). To the bacterial suspension was added the rhodamines derivatives, each derivative being tested in duplicate at a concentration of 50 μM. Each mixture of bacteria rhodamine derivative was incubated at 37° C. for 40 minutes. The bacteria-rhodamine suspensions were then treated and exposed to a 514 nm wavelength light for 180 minutes, for a total output energy of 30 Joules/cm^2. Following the treatment time, the bacteria-rhodamine suspensions were centrifuged at 3000 g, resuspended in 4 ml and serial dilutions were performed for each duplicate. 10 μL of the diluted bacterial suspensions were plated, the plates incubated overnight at 37° C. The bacteriostatic effect is expressed by the number of CFU/mL.

P. aeruginosa = experiment: Bacteriostatic activity of rhodamine derivatives against P. aeruginosa (photodynamic treatment, CFU/mL); type: cell-based, Pseudomonas aeruginosa; details: 50 μM
Protocol: as §4
as §5, with “(≈1×10^7” for “(≈×10^7”

[3] = 50 μM, 514 nm light 180 minutes, 30 Joules/cm^2

| Compound | antiviral activity against Cytomegalovirus (Cytomegalovirus [1]) | antibacterial activity (section Staphilococcus epidermitis) (S. epidermitis; [3]) | decrease of bacterial growth (bacteriostatic effect) (S. epidermitis; S. epidermitis, 50 μM) | antibacterial activity against S. epidermitis (S. epidermitis; 50 μM, extrusion time of 90 minutes prior to radiation treatment) | effect on bacterial growth (S. epidermitis; S. epidermitis, 50 μM, with 90 minutes extrusion time) | antiviral activity against Cytomegalovirus (infectivity) (Cytomegalovirus [2]) | antibacterial activity against S. typhimurium (S. typhimurium) | log decrease of bacterial growth (S. typhimurium) [logs] | antibacterial activity against E. coli (E. coli) | log decrease of bacterial growth (E. coli) | antibacterial activity against S. epidermitis (S. epidermitis; 10 μM, 514 nm light 180 minutes, 30 Joules/cm^2) | decrease of bacterial growth (bacteriostatic effect) (S. epidermitis; S. epidermitis, 10 μM) | antiviral activity against Cytomegalovirus (infectivity) (Cytomegalovirus [2]; hydrochloride) | antibacterial activity against P. aeruginosa (P. aeruginosa; 514 nm light 180 minutes, 30 Joules/cm^2) | log decrease of bacterial growth (P. aeruginosa; P. aeruginosa, without extrusion time) [logs] |
| --- | --- | --- | --- | --- | --- | --- | --- | --- | --- | --- | --- | --- | --- | --- | --- |
| acetate salt of 2,7-dibromorhodamine B hexyl ester [HA-X-149] | possess antiviral activity | showed antibacterial activity | 4,5 logs |  |  |  |  |  |  |  |  |  |  |  |  |
| COC(=O)c1cc(Cl)c(Cl)cc1-c1c2ccc(=[N+](C)C)cc-2oc2cc(N(C)C)ccc12.[Cl-] [HA-X-40, 2′-(6-dimethylamino-3-dimethylimino-3H-xanthen-9-yl) 4′,5′-dichloro-benzoic acid methyl ester hydrochloride] | possess antiviral activity | showed antibacterial activity | 2 logs | showed antibacterial activity | eradicates bacterial growth |  |  |  |  |  |  |  |  |  |  |
| COCCOCCOC(=O)c1ccccc1-c1c2ccc(=N)c(Br)c-2oc2c(Br)c(N)ccc12 [HA-X-44, 4,5-dibromorhodamine 110 2-(2-methoxyethoxy)ethyl esther] |  | showed antibacterial activity | eradicates bacterial growth |  |  | inhibit cytometalovirus infectivity; also recorded: did not need PDT treatment to possess antiviral activity | showed antibacterial activity | 5 | showed antibacterial activity | eradication |  |  |  |  |  |
| CCN(CC)c1ccc2c(-c3ccccc3C(=O)OCCCBr)c3ccc(=[N+](CC)CC)cc-3oc2c1 [HA-VIII-92, rhodamine B 3-bromopropyl ester] | possess antiviral activity |  |  |  |  |  |  |  |  |  |  |  |  |  |  |
| CCN=c1c(C)cc2c(-c3ccccc3C(=O)OCC)c3cc(C)c(NCC)c(Br)c3oc-2c1Br [HA-X-171, 4,5-dibromorhodamine 6G] | possess antiviral activity |  |  |  |  |  |  |  | showed antibacterial activity | 3.7 logs | showed antibacterial activity | 6,5 logs |  |  |  |
| acetate salt of 2,7-dibromorhodamine B methyl ester [HA-X-164] | possess antiviral activity | showed antibacterial activity | 3 logs |  |  |  | showed antibacterial activity | 0.3 | showed antibacterial activity | 0.25 logs |  |  |  |  |  |
| COC(=O)c1ccccc1-c1c2ccc(=N)c(Br)c-2oc2c(Br)c(N)ccc12.Cl [TH9402, 4,5-dibromorhodamine 123 (2-(4,5-dibromo-6-amino-3-imino-3H-xanthen-9-yl)-benzoic acid methyl ester hydrochloride), reference compound] |  | showed antibacterial activity | inhibits bacterial growth |  |  |  | showed antibacterial activity | 6.7 | showed antibacterial activity | 7 logs |  |  | inhibit cytometalovirus infectivity; also recorded: did not need PDT treatment to possess antiviral activity | showed antibacterial activity | 2 |
